Test results published in PubChem BioAssay (NCI).
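A five-concentration, 48-hour dose response in 96-well plates underlies each endpoint, interpolated linearly between surrounding concentrations. Abbreviation: GI50, concentration required for 50% inhibition of growth. At the TGI there is no net growth.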

Legend:
Test in all cases: growth of human tumour cells (NCI), 48 h
RXF 393 renal = test system: RXF 393 renal
UO-31 renal = test system: UO-31 renal
A549 NSCLC = test system: A549 NSCLC
SW-620 colon = test system: SW-620 colon
MCF7 breast = test system: MCF7 breast
MDA-MB-231 breast = test system: MDA-MB-231 breast
KM12 colon = test system: KM12 colon
HS 578T breast = test system: HS 578T breast
UACC-62 melanoma = test system: UACC-62 melanoma
SK-OV-3 ovarian = test system: SK-OV-3 ovarian

Structure (SMILES)	GI50 (RXF 393 renal) [µM]	TGI (RXF 393 renal) [µM]	GI50 (UO-31 renal) [µM]	TGI (UO-31 renal) [µM]	GI50 (A549 NSCLC) [µM]	TGI (A549 NSCLC) [µM]	GI50 (SW-620 colon) [µM]	TGI (SW-620 colon) [µM]	GI50 (MCF7 breast) [µM]	TGI (MCF7 breast) [µM]	GI50 (MDA-MB-231 breast) [µM]	TGI (MDA-MB-231 breast) [µM]	GI50 (KM12 colon) [µM]	TGI (KM12 colon) [µM]	GI50 (HS 578T breast) [µM]	TGI (HS 578T breast) [µM]	GI50 (UACC-62 melanoma) [µM]	TGI (UACC-62 melanoma) [µM]	GI50 (SK-OV-3 ovarian) [µM]	TGI (SK-OV-3 ovarian) [µM]
CN(CCCCCl)P(=O)(OCc1ccc([N+](=O)[O-])o1)C(F)(F)c1ccc(CC(=O)N[C@@H](CC(=O)O)C(=O)N[C@@H](Cc2ccc(C(F)(F)P(=O)(OCc3ccc([N+](=O)[O-])o3)N(C)CCCCCl)cc2)C(N)=O)cc1 (stereo not given in full)	> 100	> 100	> 100	> 100	> 100	> 100	81.9	> 100	32.8	> 100	39.6	> 100	43	> 100	37.6	> 100	58	> 100	> 100	> 100
Nc1ncnc2c1c(-c1cccc(OCc3ccccc3)c1)cn2C1CC(CN2CCCC2)C1 (stereo not given)	1.21	2.68	1.28	3.61	0.939	7.17	1.03	3.53	0.141	2	1.88	4.54	1.93	4.26	1.6	4.19	1.84	3.78	2.44	5.85
Fc1ccc(CNc2c3ccccc3nc3ccccc23)cc1	2.07	5.4	1.2	4.14	2.84	10.8	1.95	6.84	1.79	4.97	1.9	5.58	3.27	13.6	3.05	10.7	2.58	9.13	2.56	10.1
Cn1cc(C2=C(c3c4n(c5ccccc35)CC(CN)C4)C(=O)NC2=O)c2ccccc21 (stereo not given)	2.87	6.19	2.83	8.27	3.74	10.9	2.98	6.84	1.4	4.85	3.78	9.76	3.46	9.22	1.03	5.6	3.3	6.76	1.93	14.7
O=C(O)CNC(=O)c1ccccc1O		> 100		> 100		> 100		> 100		> 100		> 100		> 100		> 100		> 100		> 100
CCOC(=O)c1c[nH]c2c(OCc3ccccc3)c3ccccc3c(O)c2c1=O	22.6	55.7	21.7	> 100	9.33	> 56	7.95	> 100	9.55	> 67.4	15.2	60.8	6.89	> 84.5	13.5	48	3.1	15.8	26.3	> 100
C(=N/Nc1ncnc2nc[nH]c12)/c1ccccn1	1.92	7.32	0.265	3.09	1.27	> 100	1.71	> 100	0.444	> 100	0.609	> 100	0.661	> 100	12.7	> 100	0.514	3.24	0.456	15.6
CC(C)(C)C(=O)OCOP(=O)(OCOC(=O)C(C)(C)C)C1CCCN(OC(=O)c2ccccc2)C1=O (stereo not given)	0.545	4.8	0.297	2.36	2.02	25.2	1.42	24.4	0.528	10.1	0.716	14.2	0.549	5.94	0.71	38.1	1.09	2.99	1.99	27.1
C=CCCC(O)c1ccc(C(O)CCCCCCCCCCCC)o1 (stereo not given)	16	33.2	18.7	41.4	17.7	39.2	17.9	37.9	82.2	> 100	20.1	38.5	21.7	42.8	24.2	55.4	17.3	32.8	> 100	> 100
CC(=O)Oc1ccc2ccc(=O)oc2c1OC(C)=O		71.4		> 100		> 100		> 100		> 100		> 100		> 100		> 100		> 100		> 100
O=C(CCc1nnc(-c2c(Cl)cccc2Cl)o1)c1nc2ccccc2[nH]1	4.3	49.7	6.71	32.9	10.4	> 100	3.46	16.3	4.57	> 100	2.68	42.6	3.16	11	9.71	93.9	3.34	27.8	4.6	30.5
C[N+](C)(C)CCC(=O)N1C/C(=C\c2ccccc2)C(=O)/C(=C/c2ccccc2)C1		28.3		33		32.1		2.68		3.31		9.82		3.11		21.2		10.3		46.8
O=C(Nc1ncc(Cc2ccccc2)s1)c1ccc2c(c1)OCCO2	0.0231	0.0715	0.0756	> 100	0.0616	> 100	0.0435	> 100	0.0546	> 100	0.0669	4.03	0.0396	32.9	0.0353	> 100	0.0465	12.3	0.0681	26.9
CCOC(=O)C1=C(N)Oc2c(sc3c(C)cccc23)C1c1ccc(Cl)cc1 (stereo not given)	1.45	4.47	3.03	16.7	3.9	18.8	3.64	16.8	0.655	10.9	4.29	17.4	1.62	13.3	1.78	6.95	1.08	13.3	7.97	30.1
CC(C)c1ccc2c(N=Nc3ccc(S(N)(=O)=O)cc3)c(O)[nH]c2c1	4.41	> 16	> 11.9	> 20.7	> 14.8	> 25	> 25	> 25	> 14.7	> 25	9.17	> 25	1.24	> 25	8.07	> 25	> 25	> 25	7.22	19.3
CN(C)CCCNC(=O)c1cc(NC(=O)CCNC(=O)c2ccc3c(c2)C(=O)c2ccccc2C3=O)cn1C	> 100	> 100	> 100	> 100	> 100	> 100	> 100	> 100	20.1	56.4	> 100	> 100	40.8	> 100	> 100	> 100	> 100	> 100	> 100	> 100
